Data from patent EP0906100B1, “USE OF 5-HT 1A? RECEPTOR ANTAGONISTS FOR THE TREATMENT OF URINARY INCONTINENCE” (RECORDATI S.A., priority 1996, dated 1997).

What was measured:
[1] = test system: rhythmic bladder voiding contractions; test: Volume-induced rhythmic bladder voiding contractions in anaesthetized rats; type: in vivo; conditions: for AMPLITUDE mm Hg before treatment / FREQUENCY No. contr./15 min before treatment: baseline; for AMPLITUDE mm Hg before treatment / AMPLITUDE mm Hg after treatment: animals with frequency reduction <50%; for AMPLITUDE mm Hg before treatment / FREQUENCY No. contr./15 min before treatment / AMPLITUDE mm Hg after treatment / FREQUENCY No. contr./15 min after treatment: mean±S.E.; for BLADDER CONTRACTIONS Disappearance time: duration of bladder quiescence, mean (S.E. in next cell)
Method: Female Sprague Dawley rats weighing 225-275 g (Crl: CD° BR, Charles River Italia) were used. The animals were housed with free access to food and water and were maintained on a forced 12 h alternating light-dark cycle at 22-24°C for at least one week, except during the experiment. The activity on the rhythmic bladder voiding contractions was evaluated according to the method of Dray (J. Pharmcol. Methods, 13:157, 1985), with some modifications as in Guarneri (Phannacol. Res., 27:173, 1993). […] The catheter was tied in place with a ligature around the external urethral orifice and was connected with conventional pressure transducers (Statham P23 ID/P23 XL). […] The bladder was then filled via the recording catheter by incremental volumes of warm (37°C) saline until reflex bladder voiding contractions occurred (usually 0.8-1.5 ml). Two parameters were recorded from the cystometrogram: the frequency of voiding contractions, calculated by counting the number of peaks/15 min of observation, and the mean amplitude of these contractions (mean height of the peaks in mmHg) in the same time period. For intravenous (i. v. ) injection of bioactive compounds, a PE 50 polyethylene tubing filled with physiological saline was inserted into the jugular vein.
Bioactivity was assessed in individual animals (using 6-10 rats per dose), by recording the number and height of the peaks for 15 min after drug injection and comparing them with those previously recorded for 15 min after the intravenous administration of vehicle alone. […] The statistical significance of changes in frequency and amplitude before and after treatment was assessed by Student's t test for paired data. Changes showing a probability P<0.01 were considered significant.
An all-or-none criterion was also used to compare bioactivity in terms of ED50 values. Rats showing a treatment-related change of ≥30% relative to the basal value were considered to be positive. Quantal dose-response curves and ED50 values were evaluated by the method of Bliss (J. Pharm. Pharmacol., 11:192, 1938).
The rapid distension of the urinary bladder in urethane-anaesthetized rats produced a series of rhythmic bladder voiding contractions whose characteristics have been described (Maggie et al., Brain Res., 380, 83, 1986; Maggi, et al., J. Pharmacol. Exp. Ther., 230, 500, 1984). The frequency of these contractions is related to the sensory afferent arm of reflex micturition and to the integrity of the micturition centre, while their amplitude is a property of the efferent arm of the reflex (Maggi et al., J. Pharmacol. Meth., 15, 157, 1986; Maggi et al., Brain Res.. 415, 1, 1987; Maggi et al., Naun. Schmied. Arch. Pharmacol., 332, 276, 1986; Maggi et al., J. Urol., 136, 696, 1986).

[2] = test system: cystometric parameters (bladder volume capacity, micturition pressure); test: Cystometric parameters (BVC, MP) in the conscious rat; type: in vivo, rats; conditions: for BVC before treatment / MP before treatment: baseline; for BVC before treatment / MP before treatment / BVC after treatment / MP after treatment: mean±S.E.; for BVC % change / MP % change / BVC after treatment / MP after treatment: 15 min after injection
Method: Male Sprague Dawley rats (Crl: CD° BR) weighing 250-350 g were used. The animals were housed with free access to food and water and maintained on a forced 12 h alternating light-dark cycle at 22-24°C for at least one week, except during performance of the experiment.
An approximately 10 mm long midline incision was made in the shaved and cleaned abdominal wall. The urinary bladder was gently freed from adhering tissues, emptied, and then cannulated, via an incision at the dome, with a polyethylene cannula (Portex PP30), which was permanently sutured with silk thread. The cannula was exteriorized through a subcutaneous tunnel in the retroscapular area, where it was connected with a plastic adapter to avoid the risk of removal by the animal. For intravenous (i.v.) injection of test compounds, a PE 50 polyethylene tubing filled with physiological saline was inserted into the jugular vein and exteriorized in the retroscapular area.
Since cystometrographic parameters have been reported to be influenced by the time elapsed after catheter implantation […].
On the day of the experiment, the rats were placed in Bollman's cages; after a stabilization period of 20 min, the free tip of the bladder catheter was connected through a T-shaped tube to a pressure transducer (Bentley T 800/Marb P 82) and to a peristaltic pump (Gilson minipuls 2) for a continuous infusion, at the constant rate of 0.1 ml/min, of saline solution into the urinary bladder. The intraluminal pressure signal during infusion was continuously recorded on a polygraph (Battaglia Rangoni KO 380 with ADC1/T amplifier). Two urodynamic parameters were evaluated: bladder volume capacity (BVC) and micturition pressure (MP). BVC (in ml) is defined as the minimum volume infused after which detrusor contraction (followed by micturition) occurs. MP (in mmHg) is defined as the maximal intravesical pressure induced by the contraction of detrusor during micturition. Basal BVC and MP values were calculated as the means of the first two recorded cystometrograms. At this point, the infusion was interrupted and the test compounds were administered. Fifteen minutes after intravenous administration, or one hour after oral drug administration, two additional cystometrograms were recorded in each animal and the mean values of the two cystometrographic parameters were calculated.
The statistical significance of the differences in urodynamic parameter values was evaluated by Student's t test for paired data. Only changes showing a probability P<0.01 were considered to be significant.

Cc1c(-c2ccccc2)oc2c(C(=O)OCCN3CCCCC3)cccc2c1=O [Flavoxate, flavoxate]
AMPLITUDE mm Hg before treatment ([1]; 300 µg/kg i.v. group): 25.9±1.3 mm Hg
FREQUENCY No. contr./15 min before treatment ([1]; 300 µg/kg i.v. group): 9.2±1.2 No. contr./15 min
AMPLITUDE mm Hg after treatment ([1]; 300 µg/kg i.v.): 24.1±1.8 mm Hg
BLADDER CONTRACTIONS Disappearance time ([1]; 300 µg/kg i.v.): 1.70 min
FREQUENCY No. contr./15 min after treatment ([1]; 300 µg/kg i.v.): 8.8±1.7 No. contr./15 min
AMPLITUDE mm Hg before treatment ([1]; 1000 µg/kg i.v. group): 26.1±2.3 mm Hg
FREQUENCY No. contr./15 min before treatment ([1]; 1000 µg/kg i.v. group): 10.1±0.7 No. contr./15 min
AMPLITUDE mm Hg after treatment ([1]; 1000 µg/kg i.v.): 25.0±2.2 mm Hg
BLADDER CONTRACTIONS Disappearance time ([1]; 1000 µg/kg i.v.): 3.04 min
FREQUENCY No. contr./15 min after treatment ([1]; 1000 µg/kg i.v.): 8.6±0.9 No. contr./15 min
AMPLITUDE mm Hg before treatment ([1]; 3000 µg/kg i.v. group): 18.9±0.9 mm Hg
FREQUENCY No. contr./15 min before treatment ([1]; 3000 µg/kg i.v. group): 10.7±0.7 No. contr./15 min
AMPLITUDE mm Hg after treatment ([1]; 3000 µg/kg i.v.): 16.6±1.2 mm Hg
BLADDER CONTRACTIONS Disappearance time ([1]; 3000 µg/kg i.v.): 5.30 min
FREQUENCY No. contr./15 min after treatment ([1]; 3000 µg/kg i.v.): 6.5±0.7 No. contr./15 min
AMPLITUDE mm Hg before treatment ([1]; 10000 µg/kg i.v. group): 19.9±1.6 mm Hg
FREQUENCY No. contr./15 min before treatment ([1]; 10000 µg/kg i.v. group): 11.3±0.8 No. contr./15 min
AMPLITUDE mm Hg after treatment ([1]; 10000 µg/kg i.v.): 19.2±1.5 mm Hg
BLADDER CONTRACTIONS Disappearance time ([1]; 10000 µg/kg i.v.): 8.25 min
BLADDER CONTRACTIONS Disappearance time ([1]; 10000 µg/kg i.v., listed as flavoxate): 8.25 ± 1.90 min
FREQUENCY No. contr./15 min after treatment ([1]; 10000 µg/kg i.v.): 5.5±0.6 No. contr./15 min
ED (10 min disappearance of contractions) ([1]; Rattus norvegicus, iv, 10 min, extrapolated dose inducing 10 min of disappearance of the contractions, linear regression): > 10 mg/kg
ED50 ([1]; Rattus norvegicus, iv, read-out: ED50 FREQUENCY (and 95% confidence limits), i.v., quantal criterion (change ≥30% relative to basal value)): 2.65 mg/kg
BVC before treatment ([2]; 300 µg/kg i.v. group): 0.76 ± 0.11 mL
MP before treatment ([2]; 300 µg/kg i.v. group): 89.2±10.7 mmHg
BVC % change ([2]; 300 µg/kg i.v.): +14%
MP % change ([2]; 300 µg/kg i.v.): +7%
BVC after treatment ([2]; 300 µg/kg i.v.): 0.87 ± 0.11 mL
MP after treatment ([2]; 300 µg/kg i.v.): 95.0±10.9 mmHg
BVC before treatment ([2]; 1000 µg/kg i.v. group): 0.88 ± 0.15 mL
MP before treatment ([2]; 1000 µg/kg i.v. group): 90.4±10.7 mmHg
BVC % change ([2]; 1000 µg/kg i.v.): +26%
MP % change ([2]; 1000 µg/kg i.v.): -12%
BVC after treatment ([2]; 1000 µg/kg i.v.): 1.11 ± 0.16 mL
MP after treatment ([2]; 1000 µg/kg i.v.): 80.1±11.1 mmHg
BVC before treatment ([2]; 3000 µg/kg i.v. group): 0.77 ± 0.08 mL
MP before treatment ([2]; 3000 µg/kg i.v. group): 72.6±9.3 mmHg
BVC % change ([2]; 3000 µg/kg i.v.): +39%
MP % change ([2]; 3000 µg/kg i.v.): +4%
BVC after treatment ([2]; 3000 µg/kg i.v.): 1.07 ± 0.12 mL
MP after treatment ([2]; 3000 µg/kg i.v.): 75.2±9.5 mmHg
effect on MP (in words) ([2]; conscious rats, i.v., NAN-190 up to the highest administrable dose of 300 µg/kg): inactive
